Test results reported in US20250326715A1, “NOVEL MAIN PROTEASE INHIBITORS, AND COMPOSITIONS AND METHODS THEREOF” (University of Massachusetts, priority 2023, published 2025).
Where two headings read alike, the source gives them in different places.

Columns and labels:
SARS-CoV-2 M^Pro [1] = target: T1, SARS-CoV-2 M^Pro (Severe acute respiratory syndrome coronavirus 2, UniProt P0DTD1); experiment: Determination of IC50 values for SARS-CoV-2 M^Pro (fluorogenic peptide substrate, end-point); format: biochemical
SARS-CoV-2 = experiment: microbe, parasite or virus in culture; format: cell-based; conditions: for EC90: read-out: EC90, inhibition of SARS-CoV-2 infection; for EC50: read-out: EC50, inhibition of SARS-CoV-2 infection; for IC50: hACE2 expressing A549 cells, read-out: IC50, block of SARS-CoV2 replication
M^Pro [2] = target: T2, M^Pro (Severe acute respiratory syndrome coronavirus 2, UniProt P0DTD1); experiment: Labelling of A549-hACE2 lysate spiked with recombinant M^Pro with SM144, competition by SM141 or SM142; format: binding, SARS-CoV-2; conditions: 250 nM M^Pro spiked, 2.5 μM SM144, 2.5-25 μM competitor
Experimental: A549-hACE2 cells were grown in the DMEM medium (supplemented with 10% heat-inactivated fetal bovine serum, 100 units/mL penicillin and 100 μg/mL streptomycin). Upon reaching ˜90% confluence, cells were collected using a cell scraper, harvested by centrifugation at 3,000 rpm for 5 min and were resuspended in 1×PBS supplemented with 1% NP-40. Then the cells were lysed using a probe sonicator and lysates were cleared by centrifugation at 21000 g for 15 min. Soluble proteins in the lysate were quantified by DC-assay (Bio-Rad).
A549-hACE2 lysate (2 mg/mL, 50 μL total) spiked with or without recombinant M^Pro (250 nM final) was treated with DTT (1 mM final) and various concentrations of SM144 (0-5 μM final). […] All these reactions were incubated at 25° C. for 30 min. Then TAMRA-N3 (100 μM), TCEP (1 mM), TBTA (0.3 mM) and freshly prepared copper (II) sulphate (4 mM) were added sequentially to the reaction mixture. The tubes were then gently tumbled at room temperature for 2 h. The precipitated proteins were collected by centrifugation at 5000 rpm for 6 min. The protein pellets were resuspended in 5×SDS-PAGE loading dye, heated at 95° C. for 10 min and separated by SDS-PAGE. Protein bands were visualized by recording in-gel fluorescence using a typhoon scanner (excitation/emission maxima ˜546/579 nm). All the experiments were performed in duplicate.

SARS-CoV-2 M^Pro [3] = target: T1, SARS-CoV-2 M^Pro; experiment: Determination of KI values for SARS-CoV-2 M^Pro (initial velocity, competitive inhibition); format: biochemical
SARS-CoV-2 PL^Pro = SARS-CoV-2 PL^Pro (Severe acute respiratory syndrome coronavirus 2, UniProt P0DTD1); experiment: Determination of IC50 values for SARS-CoV-2 PL^Pro (Z-RLRGG-AMC substrate); format: biochemical
Cathepsin B = target: T3, Cathepsin B (Homo sapiens, UniProt P07858); experiment: Cathepsin B inhibition assay kit (Abcam), IC50; format: biochemical; conditions: 20 min pretreatment
T3 construct: purchased Abcam ab185438
Experimental: (§1) Determination of IC50 and kinact/KI values for Cathepsins L and B
IC50 and kinact/KI values of the inhibitors were determined using commercially available inhibition assay kits (Abcam) by following the manufacturer's protocol. For IC50 values, enzymes were pretreated with test inhibitor (0-50 μM) for 20 min prior to adding the fluorogenic substrate, and end-point fluorescence was recorded after 30 min. For the kinact/KI values, enzymes were treated with inhibitor and substrate simultaneously and increase in fluorescence was monitored over 60 min. The observed rates (kobs) were determined by fitting to a single-phase association equation. The resulting kobs values were plotted against the concentrations of inhibitor and the data were fit to equation 2 to derive the kinact/KI values,
(§2) using GraphPad Prism, where kinact is the maximal rate of inactivation, KI is the concentration of inhibitor that affords half-maximal inactivation, and [I] is the concentration of inhibitor. When kobs with [I] varied linearly, kinact/KI was determined from the slope of the line. All the experiments were performed in triplicate. All fluorescence measurements were taken at absorption/emission wavelength of 400/505 nm using an EnVision 2105 plate reader. Crystallization of M^Pro in Complex with Inhibitors

M^Pro [4] = target: T2, M^Pro; format: binding
SARS-CoV-2 M^Pro [5] = target: T1, SARS-CoV-2 M^Pro; experiment: Determination of kinact/KI values for SARS-CoV-2 M^Pro (time- and concentration-dependent inactivation); format: biochemical
Experimental: where νo is the initial velocity of uninhibited reaction and νi is the initial velocity in the presence of inhibitor. All measurements were done in triplicate. Determination of kinact/KI values for SARS-CoV-2 M^Pro
Time- and concentration-dependent inactivation assays were done by following a similar protocol as described for Ki determination. M^Pro (12.5 nM final) was treated with the peptide-substrate (30 μM final) and test inhibitor (0-80 μM for D-FF(R/Cit)-(CMK/CMKyne); 0-1.25 mM for SM136-145) at time=0 to initiate inactivation process. The total volume of the assay mixture was 50 μL. Time-dependent increase in fluorescence was monitored at 485 nm with excitation at 340 nm for a period of 20-25 min. The observed rates (kobs) for the peptide cleavage in both the presence and absence of inhibitor were determined by fitting to a single-phase association equation. The resulting kobs values were plotted against the concentrations of inhibitor and linear fits were used to derive the slope that afforded the kinact/KI values. All measurements were done in triplicate.

Cathepsin L = target: T4, Cathepsin L (Homo sapiens, UniProt P07711); experiment: Cathepsin L inhibition assay kit (Abcam), IC50 and kinact/KI; format: biochemical; conditions: for IC50: 20 min pretreatment; for kinact/KI: read-out: Cathepsin L kinact/KI
T4 construct: purchased Abcam ab197012
Experimental: as §1
IC50 and kinact/KI values of the inhibitors were determined using commercially available inhibition assay kits (Abcam) by following the manufacturer's protocol. […] The observed rates (kobs) were determined by fitting to a single-phase association equation. The resulting kobs values were plotted against the concentrations of inhibitor and the data were fit to equation 2 to derive the kinact/KI values,
as §2, with “All fluorescence measurements were taken at absorption/emission wavelength of 400/505 nm using an EnVision 2105 plate reader.” left out

[6] = Pharmacokinetic parameters in mice (plasma, LC-MS/MS); conditions: for CI_Obs: IV
Experimental: Pharmacokinetics were evaluated in male C57Bl/6 mice, approximately 25 g. Test compounds were formulated at 0.3 mg/mL for intravenous dosing and 1 mg/mL for oral gavage. Formulation concentrations reflect free-base concentrations. Formulations were prepared by dissolving in DMSO (20× stock) and mixing 1:1 with tween-80. Prior to dosing, the formulation was diluted with sterile saline. The final formulation was 5% DMSO, 5% tween-80, 90% saline (v:v:v). Mice (n=3) were dosed at 10 μL per gram body weight. […] A total of 25 μL blood was collected at each time point. The hematocrit tubes were sealed with a wax plug and held on ice until plasma could be isolated via centrifugation in a microcentrifuge fit with a hematocrit rotor.
Drug levels were determined from 5 μL plasma. Plasma was treated with 75 μL 90/10 acetonitrile/water containing Carbamazepine as an internal standard (IS). Samples were loaded to a 96-well Millipore Multiscreen Solvinter 0.45 micron low binding PTFE hydrophilic filter plate and the filtrate was directly analyzed. All plasma samples were treated with 75 μL 90/10 acetonitrile/water with Carbamazepine as internal standard (IS) to extract the analyte and precipitate protein. The plates were agitated on ice for approximately five minutes prior to centrifugation into a collection plate. Separate standard curves were prepared in blank mouse plasma and brain homogenate and processed in parallel with the samples. The filtrate was directly analyzed by LC-MS/MS.

[7] = mock-infected mice
OC-43 = format: cell-based; conditions: A549-hACE2 cells
[8] = 12.5 nM M^Pro, 20 min preincubation, 30 μM substrate, read-out: M^Pro IC50
[9] = competitive inhibition, initial velocity, read-out: M^Pro Ki
[10] = 30 nM PL^Pro, 20 min preincubation, read-out: PL^Pro IC50
[11] = Severe acute respiratory syndrome coronavirus 2, A549-hACE2 cells
[12] = Severe acute respiratory syndrome coronavirus 2
[13] = male, C57Bl/6, mouse, plasma, iv, 3 mg/kg
[14] = male, C57Bl/6, mouse, plasma, po, 10 mg/kg

T4 sequence (P07711 114-333): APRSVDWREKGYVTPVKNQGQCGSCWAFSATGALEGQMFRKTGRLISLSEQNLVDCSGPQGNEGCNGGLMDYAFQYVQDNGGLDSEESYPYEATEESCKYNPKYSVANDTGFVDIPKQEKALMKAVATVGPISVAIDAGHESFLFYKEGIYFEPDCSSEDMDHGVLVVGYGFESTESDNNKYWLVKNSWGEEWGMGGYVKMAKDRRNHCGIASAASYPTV

With `C#CCOCCC(=O)NC(Cc1ccc(F)cc1)C(=O)NC(Cc1ccccc1)C(=O)NC(C=CC(=O)OCC)CC1CCNC1=O` (stereo not shown) [SM144] the IC50 (SARS-CoV-2 M^Pro [1]; [8]) was 700 nM, the “antiviral activity compared with SM141 and SM142” value (SARS-CoV-2; A549-hACE2 cells) was “significantly lower antiviral activity than SM141 and SM142” and the “labeling of M^Pro in spiked A549-hACE2 lysate / its inhibition” value (M^Pro [2]) was “selectively labels M^Pro in a dose-dependent manner”. For the same compound, the Ki (SARS-CoV-2 M^Pro [3]; [9]) was 4500 nM, the IC50 (SARS-CoV-2 PL^Pro; [10]) was greater than 50000 nM and the IC50 (Cathepsin B) was greater than 50000 nM. For the same compound, the “limit of detection of M^Pro by the probe” value (M^Pro [4]; 5 μM SM144, TAMRA-azide, in-gel fluorescence) was 5 pmol, the kinact/KI (SARS-CoV-2 M^Pro [5]; read-out: second-order rate constant for enzyme inactivation (kinact/KI), M^Pro) was 567 M⁻¹ s⁻¹ and the IC50 (Cathepsin L) was 220 nM. For the same compound, the kinact/KI (Cathepsin L) was 1000 M⁻¹ s⁻¹.

For `CCOC(=O)C=CC(CC1CCNC1=O)NC(=O)C(Cc1ccccc1)NC(=O)C(N)Cc1ccccc1` (stereo not shown) [SM141], the IC50 (SARS-CoV-2 M^Pro [1]) was 900 nM, the “oral bioavailability / oral absorption, in words” value ([6]; mice) was “minimal oral bioavailability” and the “plasma half-life (T1/2), in words” value ([6]; mice) was “about an hour”. For the same compound, the “tissue distribution, in words” value ([6]; mice) was “lower tissue distribution”, the CI_Obs ([6]; mice) was 71.5 mL/min/kg and the “antiviral activity, in words” value (SARS-CoV-2; A549-hACE2 cells, 2 μM, 24 h) was “almost completely blocks viral infection”. It also gave an EC90 (SARS-CoV-2; A549-hACE2 cells) of 22 nM, an EC50 (SARS-CoV-2; [11]) of 8.2 nM and an EC90 (SARS-CoV-2; [11]) of 22.1 nM. For the same compound, the IC50 (SARS-CoV-2; [12]) was 8.2 nM, the “labeling of M^Pro in spiked A549-hACE2 lysate / its inhibition” value (M^Pro [2]) was “dose dependently inhibited” and the Ki (SARS-CoV-2 M^Pro [3]) was 9000 nM. The IC50 (SARS-CoV-2 PL^Pro) was greater than 50000 nM, the “inhibition of papain-like protease (PL^Pro), in words” value (SARS-CoV-2 PL^Pro) was “completely inactive” and the IC50 (Cathepsin B) was greater than 50000 nM. For the same compound, the “weight loss in uninfected mice” value [7] was “no significant weight loss in the uninfected mice”, the “inhibition of OC-43, in words” value (OC-43) was “inhibit OC-43” and the “inhibition of SM144 labeling of recombinant M^Pro” value (M^Pro [4]; 0-50 μM competitor, 5 μM SM144) was “competitively inhibited”. It also gave an IC50 (Cathepsin L) of 60 nM.

Work on `CCOC(=O)C=CC(CC1CCNC1=O)NC(=O)C(Cc1ccccc1)NC(=O)C(Cc1ccc(F)cc1)NC(=O)OC(C)(C)C` (stereo not shown) [SM142] yielded an IC50 (SARS-CoV-2 M^Pro [1]; [8]) of 1800 nM, a half-life ([6]; male, C57Bl/6, mouse, in vivo, po, 10 mg/kg) of 2.1 h and an AUC(0-inf) [6, 13] of 308 ng·h/mL. For the same compound, the AUC(0-t) [6, 13] was 0.4 µM·h, the Cmax [6, 13] was 400 nM and the MRT inf [6, 13] was 1.9 h. The Tmax [6, 13] was 4.8 min, the Vd [6, 13] was 13.2 L/kg and the half-life [6, 13] was 2.1 h. It also gave an AUC(0-inf) [6, 14] of 347 ng·h/mL, an AUC(0-t) [6, 14] of 0.5 µM·h and a Cmax [6, 14] of 600 nM. For the same compound, the Tmax [6, 14] was 4.8 min, the bioavailability [6, 14] was 37.5% and the “oral bioavailability / oral absorption, in words” value ([6]; mice) was “significant oral absorption”. For the same compound, the “tissue distribution, in words” value ([6]; mice) was “much higher tissue distribution than SM141”, the CI_Obs ([6]; mice) was 169 mL/min/kg and the EC50 (SARS-CoV-2; [11]) was 14.7 nM. The IC50 (SARS-CoV-2; [12]) was 14.7 nM, the “labeling of M^Pro in spiked A549-hACE2 lysate / its inhibition” value (M^Pro [2]) was “dose dependently inhibited” and the Ki (SARS-CoV-2 M^Pro [3]; [9]) was 10000 nM. The “inhibition of papain-like protease (PL^Pro), in words” value (SARS-CoV-2 PL^Pro) was “completely inactive”, the IC50 (SARS-CoV-2 PL^Pro; [10]) was greater than 50000 nM and the IC50 (Cathepsin B) was 40000 ± 9000 nM. For the same compound, the “weight loss in uninfected mice” value [7] was “no significant weight loss in the uninfected mice”, the “inhibition of OC-43, in words” value (OC-43) was “inhibit OC-43” and the kinact/KI (SARS-CoV-2 M^Pro [5]; read-out: M^Pro kinact/KI) was 183 M⁻¹ s⁻¹. It also gave an IC50 (Cathepsin L) of 145 nM and a kinact/KI (Cathepsin L) of 1830 M⁻¹ s⁻¹.
